Assay results reported in patent US10617621B2, “Antimicrobial composition” (Conopco, Inc., priority 2016, dated 2020).
Structures can show the parent of a compound that is named as a salt. Where two headings read alike, the source gives them in different places.

Test system: Malassezia furfur
Assay: ΣFIC assay against Malassezia furfur (checkerboard in-vitro susceptibility testing, alamar blue)
Type: cell-based, M. furfur (CBS 1878)
Description: A brief description of the method is given below.
Methods: ΣFIC Assay Against Malassezia furfur
They are then incubated at 32° C. for 48 hrs with shaking. Then, 1 ml of the first broth culture is transferred into 9 ml of fresh PB and incubated at 32° C. for 48 hrs with shaking. The final culture should contain 2 to 6×10^6 cells/ml. This is achieved by diluting using PB to 5*10^6 cell/ml.
The piperazine compound was serially diluted (2-fold) to prepare in a range of 10-10,000 ppm in growth medium.
Binary combinations of ZPTO and the testing compound were prepared in 96-well plate by mixing 20 μl of zinc pyrithione solution with 20 μl of testing compound. The solution in each well were further mixed with 160 μl of PB and 20 μl of M. furfur. The final cell density in the testing plate is around 5*10^4 cell/ml, and the final concentration of actives in each well of the 96-well plate were shown below.
The plate was incubated at 32° C. for one day. Then 20 μl of alamar blue (0.01%) was added into each well with a further incubation for one day to observe the color change. Red color indicates microbial growth and the non-changing blue color indicates no growth.
The MIC is defined as the absolute lowest concentration of active that provides complete microbial growth inhibition as indicated by the blue color of alamar blue under the tested condition.
The differing behaviours of inhibitory antimicrobials in isolation and mixtures have been widely explored using the concept of the Fractional Concentration (FC) and Fractional Inhibitory Concentration (FIC). The parameter can be defined as follows: […]
The interactions between antimicrobials can be additive, synergistic or antagonistic depending on whether the efficacy of the combination is equivalent to, greater than or less than that obtained for the same total concentration of the individual components when tested alone.
These relationships can be expressed mathematically by summing the fractional MIC values for all the components present in the mixture to give the “fractional inhibition index”. There is no consistent approach in the academic or patent literature in defining precise limiting ΣFIC values that differentiate synergy from additivity or antagonism. In this study, we have adopted a liberal approach defining any binary mixture with ΣFIC<0.9 as showing evidence of synergistic behavior.
ΣFIC=FIC (component 1)+FIC (component 2)
ΣFIC=1 corresponds to additive bactericidal activity
ΣFIC>1 corresponds to antagonistic bactericidal activity
ΣFIC<0.9 corresponds to synergistic bactericidal activity

[1] = CBS1878, active alone, M. furfur CBS 1878 in Pityrosporum Broth, 32° C., complete growth inhibition by alamar blue, read-out: Minimum Inhibition Concentration (MIC)
[2] = CBS1878, read-out: Minimum Inhibition Concentration (MIC)

Row | Compound | MIC [1] [µg/mL] | MIC [2] [µg/mL]
1 | CC(C)C(=O)N1CCN(c2ccc(F)cc2)CC1 [1-(4-fluorophenyl)-4-isobutyrylpiperazine] | > 1000 | 
2 | CCc1ccc(CN2CCN(Cc3cccc(Cl)c3)CC2)cc1 [1-(3-chlorobenzyl)-4-(4-ethylbenzyl)piperazine oxalate] |  | > 1000
3 | O=C(c1ccccc1F)N1CCN(C2CCC(c3ccccc3)CC2)CC1 (centres unmarked) [1-(2-fluorobenzoyl)-4-(4-phenylcylcohexyl)piperazine] | 100 | 
4 | CC(C)C(=O)N1CCN(c2ccccc2)CC1 [1-isobutyryl-4-phenylpiperazine] | > 1000 | 
5 | CCc1ccc(CN2CCN(C3CCC(C)CC3)CC2)cc1 (centres unmarked) [1-(4-ethylbenzyl)-4-(4-methylcyclohexyl)piperazine oxalate] |  | 125
